In PubChem BioAssay AID212 (DTP/NCI, 2004):
“And” between values parts separate entries of the source, which are not always exact repeats. Identical values can stand only once. Inconclusive results are not listed.

Tested on: BDF1 mice, colon carcinoma 38 sc, T/C %
Experiment: NCI In Vivo Anticancer Drug Screen. Data for tumor model Colon Carcinoma 38 (subcutaneous) in B6D2F1 (BDF1) mice
Details: endpoint: median tumor weight (est.), higher = larger tumour
In short: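 T/C readout: treated group (T) measurement over vehicle control group (C) measurement. Endpoint is survival or tumor size in mice bearing a transplanted tumor.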

[1] = dose: 50.0 mg/kg/injection, schedule: Q07DX002 (ip), vehicle: saline
[2] = dose: 100.0 mg/kg/injection, schedule: Q07DX002 (ip), vehicle: saline
[3] = dose: 200.0 mg/kg/injection, schedule: Q07DX002 (ip), vehicle: saline
[4] = dose: 400.0 mg/kg/injection, schedule: Q07DX002 (ip), vehicle: saline
[5] = dose: 25.0 mg/kg/injection, schedule: Q07DX002 (ip), vehicle: Klucel (hydroxypropylcellulose) (HPC)
[6] = dose: 100.0 mg/kg/injection, schedule: Q07DX002 (ip), vehicle: Klucel (hydroxypropylcellulose) (HPC)
[7] = dose: 200.0 mg/kg/injection, schedule: Q07DX002 (ip), vehicle: Klucel (hydroxypropylcellulose) (HPC)
[8] = dose: 12.5 mg/kg/injection, schedule: Q07DX002 (ip), vehicle: saline
[9] = dose: 25.0 mg/kg/injection, schedule: Q07DX002 (ip), vehicle: saline
[10] = dose: 12.5 mg/kg/injection, schedule: Q07DX002 (ip), vehicle: Klucel (hydroxypropylcellulose) (HPC)
[11] = dose: 50.0 mg/kg/injection, schedule: Q07DX002 (ip), vehicle: Klucel (hydroxypropylcellulose) (HPC)
[12] = dose: 20.0 mg/kg/injection, schedule: Q07DX002 (ip), vehicle: saline
[13] = dose: 25.0 mg/kg/injection, schedule: Q07DX002 (ip), vehicle: saline with Tween-80
[14] = dose: 50.0 mg/kg/injection, schedule: Q07DX002 (ip), vehicle: saline with Tween-80
[15] = dose: 100.0 mg/kg/injection, schedule: Q07DX002 (ip), vehicle: saline with Tween-80
[16] = dose: 200.0 mg/kg/injection, schedule: Q07DX002 (ip), vehicle: saline with Tween-80
[17] = dose: 400.0 mg/kg/injection, schedule: Q07DX002 (ip), vehicle: saline with Tween-80
[18] = dose: 6.25 mg/kg/injection, schedule: Q07DX002 (ip), vehicle: Klucel (hydroxypropylcellulose) (HPC)

NC(=O)c1c[se]c(C2OC(CO)C(O)C2O)n1 (stereo unspecified)
T/C (dose: 25.0 mg/kg/injection, schedule: Q07DX002 (ip), vehicle: water): 56 % of control
T/C [1]: 79 % of control
T/C (dose: 50.0 mg/kg/injection, schedule: Q07DX002 (ip), vehicle: water): 74 % of control
T/C [2]: 89 % of control
T/C (dose: 100.0 mg/kg/injection, schedule: Q07DX002 (ip), vehicle: water): 44 % of control
T/C [3]: 73 % of control
T/C (dose: 200.0 mg/kg/injection, schedule: Q07DX002 (ip), vehicle: water): 42 % of control
T/C [4]: 74 % of control
T/C (dose: 400.0 mg/kg/injection, schedule: Q07DX002 (ip), vehicle: water): 40 % of control
T/C (dose: 800.0 mg/kg/injection, schedule: Q07DX002 (ip), vehicle: saline): 90 % of control

Cc1ccc(S(=O)(=O)N/N=C/C(Br)=C(/Br)C(=O)O)cc1
T/C [5]: 94 % of control
T/C [6]: 124 % of control and 100 % of control
T/C [7]: 88 % of control
T/C (dose: 400.0 mg/kg/injection, schedule: Q07DX002 (ip), vehicle: Klucel (hydroxypropylcellulose) (HPC)): 72 % of control

CCCCCCCCCCCCCCCC(=O)Nc1ccn(C2OC(CO)C(O)C2O)c(=O)n1 (stereo unspecified)
T/C [8]: 41 % of control
T/C [9]: 88 % of control
T/C [1]: 50 % of control
T/C [2]: 5 % of control
T/C [3]: 16 % of control
T/C [4]: 1 % of control

C=CCNc1ccc(C)cc1
T/C [10]: 72 % of control
T/C [5]: 92 % of control
T/C [11]: 66 % of control
T/C [6]: 86 % of control
T/C [7]: 78 % of control

COc1ccc2c(c1)CCC(c1ccccc1)=C2c1ccc(OCCN2CCCC2)cc1
T/C [10]: 68 % of control and 85 % of control
T/C [5]: 83 % of control and 87 % of control
T/C [11]: 70 % of control
T/C [6]: 77 % of control and 79 % of control
T/C [7]: 100 % of control

CC(C)CCCCCCCCCCCCC(=O)NCC(=O)NC1C(C)OC(Nc2ncnc3nc[nH]c23)C(O)C1O (stereo unspecified)
T/C (dose: 0.5 mg/kg/injection, schedule: Q07DX002 (ip), vehicle: distilled water + Tween-80): 105 % of control

CCCCCC(O)C1C(=O)OC(C)C(O)/C=C/C=C/C=C/C=C\C=C(\C)C(O)CC(O)CC(O)CC(O)CC(O)CC(O)CC1O (stereo unspecified)
T/C (dose: 2.5 mg/kg/injection, schedule: Q07DX002 (ip), vehicle: saline): 105 % of control
T/C (dose: 5.0 mg/kg/injection, schedule: Q07DX002 (ip), vehicle: saline): 64 % of control
T/C [12]: 71 % of control

CC1OC1C(=O)C1(O)C(C)C(O)C23OC2(C(O)c2c(O)cccc2C3=O)C1O (stereo unspecified)
T/C (dose: 2.0 mg/kg/injection, schedule: Q07DX002 (ip), vehicle: Klucel (hydroxypropylcellulose) (HPC)): 95 % of control and 101 % of control
T/C (dose: 4.0 mg/kg/injection, schedule: Q07DX002 (ip), vehicle: Klucel (hydroxypropylcellulose) (HPC)): 77 % of control and 91 % of control
T/C (dose: 8.0 mg/kg/injection, schedule: Q07DX002 (ip), vehicle: Klucel (hydroxypropylcellulose) (HPC)): 95 % of control and 102 % of control
T/C (dose: 32.0 mg/kg/injection, schedule: Q07DX002 (ip), vehicle: Klucel (hydroxypropylcellulose) (HPC)): 98 % of control
T/C (dose: 64.0 mg/kg/injection, schedule: Q07DX002 (ip), vehicle: Klucel (hydroxypropylcellulose) (HPC)): 124 % of control

O=C1NC(O)c2ccccc2O1 (stereo unspecified)
T/C [13]: 93 % of control
T/C (dose: 25.0 mg/kg/injection, schedule: Q07DX002 (ip), vehicle: suspension in saline): 64 % of control
T/C [14]: 90 % of control
T/C (dose: 50.0 mg/kg/injection, schedule: Q07DX002 (ip), vehicle: suspension in saline): 113 % of control and 93 % of control
T/C [15]: 75 % of control
T/C (dose: 100.0 mg/kg/injection, schedule: Q07DX002 (ip), vehicle: suspension in saline): 60 % of control and 70 % of control
T/C [16]: 69 % of control
T/C [17]: 82 % of control

CCCCCCCCCCCCCCCCCCCCCC(=O)Nc1ccn(C2OC(CO)C(O)C2O)c(=O)n1 (stereo unspecified)
T/C [8]: 80 % of control
T/C [13]: 151 % of control
T/C [9]: 119 % of control and 105 % of control
T/C [14]: 172 % of control
T/C [15]: 82 % of control
T/C [2]: 52 % of control and 65 % of control
T/C [16]: 92 % of control
T/C [3]: 52 % of control
T/C [17]: 10 % of control
T/C [4]: 29 % of control

C1OC1C1CO1 (stereo unspecified)
T/C (dose: 10.0 mg/kg/injection, schedule: Q07DX002 (ip), vehicle: saline): 99 % of control and 107 % of control
T/C [12]: 119 % of control and 120 % of control
T/C (dose: 40.0 mg/kg/injection, schedule: Q07DX002 (ip), vehicle: saline): 96 % of control

COCCCNC1=C(C#N)C(=O)NC(c2cccc([N+](=O)[O-])c2)S1 (stereo unspecified)
T/C (dose: 12.5 mg/kg/injection, schedule: Q07DX002 (ip), vehicle: saline with Tween-80): 97 % of control
T/C [13]: 95 % of control
T/C [14]: 108 % of control

NCCOCC(N)C(=O)O (stereo unspecified)
T/C (dose: 125.0 mg/kg/injection, schedule: Q07DX002 (ip), vehicle: saline): 112 % of control
T/C (dose: 250.0 mg/kg/injection, schedule: Q07DX002 (ip), vehicle: saline): 84 % of control
T/C (dose: 500.0 mg/kg/injection, schedule: Q07DX002 (ip), vehicle: saline): 107 % of control
T/C (dose: 1000.0 mg/kg/injection, schedule: Q07DX002 (ip), vehicle: saline): 107 % of control

CCCC(=O)OCc1cc(=O)n(C)c2c3c4c(cc12)c(C)cc(=O)n4CO3
T/C [18]: 99 % of control
T/C [10]: 96 % of control
T/C [5]: 162 % of control
T/C [11]: 150 % of control
T/C [6]: 64 % of control

CC(=O)OCC1OC(n2cc(CBr)nn2)C(OC(C)=O)C(OC(C)=O)C1OC(C)=O (stereo unspecified)
T/C (dose: 6.25 mg/kg/injection, schedule: Q07DX003 (ip), vehicle: Klucel (hydroxypropylcellulose) (HPC)): 46 % of control
T/C (dose: 6.25 mg/kg/injection, schedule: Q07DX003 (ip), vehicle: saline with Tween-80): 120 % of control
T/C (dose: 12.5 mg/kg/injection, schedule: Q07DX003 (ip), vehicle: Klucel (hydroxypropylcellulose) (HPC)): 93 % of control
T/C (dose: 12.5 mg/kg/injection, schedule: Q07DX003 (ip), vehicle: saline with Tween-80): 67 % of control
T/C (dose: 25.0 mg/kg/injection, schedule: Q07DX003 (ip), vehicle: Klucel (hydroxypropylcellulose) (HPC)): 120 % of control
T/C (dose: 25.0 mg/kg/injection, schedule: Q07DX003 (ip), vehicle: saline with Tween-80): 90 % of control
T/C (dose: 50.0 mg/kg/injection, schedule: Q07DX003 (ip), vehicle: saline with Tween-80): 53 % of control
T/C (dose: 100.0 mg/kg/injection, schedule: Q07DX003 (ip), vehicle: saline with Tween-80): 64 % of control

O=NN(CCCl)C(=O)NC1CCCCC1
T/C [18]: 91 % of control
T/C (dose: 10.0 mg/kg/injection, schedule: Q07DX003 (ip), vehicle: Klucel (hydroxypropylcellulose) (HPC)): 71 % of control
T/C (dose: 10.0 mg/kg/injection, schedule: Q07DX003 (ip), vehicle: carboxymethylcellulose (CMC)): 53 % of control
T/C [10]: 64 % of control
T/C (dose: 20.0 mg/kg/injection, schedule: Q07DX003 (ip), vehicle: Klucel (hydroxypropylcellulose) (HPC)): 72 % of control
T/C (dose: 20.0 mg/kg/injection, schedule: Q07DX003 (ip), vehicle: carboxymethylcellulose (CMC)): 47 % of control
T/C [5]: 36 % of control
T/C (dose: 40.0 mg/kg/injection, schedule: Q07DX003 (ip), vehicle: Klucel (hydroxypropylcellulose) (HPC)): 44 % of control
T/C (dose: 40.0 mg/kg/injection, schedule: Q07DX003 (ip), vehicle: carboxymethylcellulose (CMC)): 24 % of control
T/C (dose: 80.0 mg/kg/injection, schedule: Q07DX003 (ip), vehicle: Klucel (hydroxypropylcellulose) (HPC)): 33 % of control

Cc1cc(NCCCCCCCNc2cc(C)nc3cc(N)ccc23)c2ccc(N)cc2n1
T/C (dose: 1.56 mg/kg/injection, schedule: Q07DX002 (ip), vehicle: saline with Tween-80): 78 % of control
